Columns and labels:
[1] = tested on: barnyardgrass (Echinochloa crus-galli); assay: Test A preemergence, visual injury rating 0-100 (0 no effect, 100 complete control); type: in vivo
[2] = tested on: foxtail, giant (giant foxtail, Setaria faberii); assay: Test A preemergence, visual injury rating 0-100; type: in vivo
kochia (Kochia scoparia) [3] = assay: Test A preemergence, visual injury rating 0-100; type: in vivo
[4] = tested on: pigweed (Amaranthus retroflexus); assay: Test A preemergence, visual injury rating 0-100; type: in vivo
[5] = tested on: ragweed (common ragweed, Ambrosia elatior); assay: Test A preemergence, visual injury rating 0-100; type: in vivo
[6] = tested on: ryegrass, Italian (Italian ryegrass, Lolium multiflorum); assay: Test A preemergence, visual injury rating 0-100; type: in vivo
[7] = tested on: barnyardgrass (Echinochloa crus-galli); assay: Test A postemergence, visual injury rating 0-100; type: in vivo; conditions: 0 to 100 scale
[8] = tested on: blackgrass (Alopecurus myosuroides); assay: Test A postemergence, visual injury rating 0-100; type: in vivo; conditions: 0 to 100 scale
corn (Zea mays) = assay: Test A postemergence, visual injury rating 0-100; type: in vivo; conditions: 0 to 100 scale
[9] = tested on: foxtail, giant (giant foxtail, Setaria faberii); assay: Test A postemergence, visual injury rating 0-100; type: in vivo; conditions: 0 to 100 scale
[10] = tested on: galium (catchweed bedstraw, Galium aparine); assay: Test A postemergence, visual injury rating 0-100; type: in vivo; conditions: 0 to 100 scale
kochia (Kochia scoparia) [11] = assay: Test A postemergence, visual injury rating 0-100; type: in vivo; conditions: 0 to 100 scale
[12] = tested on: pigweed (Amaranthus retroflexus); assay: Test A postemergence, visual injury rating 0-100; type: in vivo; conditions: 0 to 100 scale
[13] = tested on: ragweed (common ragweed, Ambrosia elatior); assay: Test A postemergence, visual injury rating 0-100; type: in vivo; conditions: 0 to 100 scale
[14] = tested on: ryegrass, Italian (Italian ryegrass, Lolium multiflorum); assay: Test A postemergence, visual injury rating 0-100; type: in vivo; conditions: 0 to 100 scale
[15] = tested on: wheat (Triticum aestivum); assay: Test A postemergence, visual injury rating 0-100; type: in vivo; conditions: 0 to 100 scale
[16] = tested on: ducksalad (Heteranthera limosa); assay: Test B flooded paddy test, visual rating 0-100; conditions: Flood, 250 g ai/ha, applied to paddy water, rated after 13 to 15 days
[17] = tested on: barnyardgrass (Echinochloa crus-galli); assay: Test B flooded paddy test, visual rating 0-100; conditions: Flood, 250 g ai/ha, applied to paddy water, rated after 13 to 15 days
rice (Oryza sativa) = assay: Test B flooded paddy test, visual rating 0-100 (0 no effect, 100 complete control); conditions: Flood, 250 g ai/ha, applied to paddy water, rated after 13 to 15 days
[18] = 31 g ai/ha, 0 to 100 scale (0 no effect, 100 complete control), approx. 10 days

Structure (SMILES)	Barnyardgrass plant response rating (0 to 100 scale) ([1]; 125 g ai/ha)	Barnyardgrass plant response rating (0 to 100 scale) ([1]; 500 g ai/ha)	Foxtail, Giant plant response rating (0 to 100 scale) ([2]; 125 g ai/ha)	Foxtail, Giant plant response rating (0 to 100 scale) ([2]; 500 g ai/ha)	Kochia plant response rating (0 to 100 scale) (kochia (Kochia scoparia) [3]; 125 g ai/ha)	Pigweed plant response rating (0 to 100 scale) ([4]; 125 g ai/ha)	Ragweed plant response rating (0 to 100 scale) ([5]; 125 g ai/ha)	Barnyardgrass plant response rating ([7]; 125 g ai/ha)	Blackgrass plant response rating ([8]; 125 g ai/ha)	Corn plant response rating (corn (Zea mays); 125 g ai/ha)	Foxtail, Giant plant response rating ([9]; 125 g ai/ha)	Galium plant response rating ([10]; 125 g ai/ha)	Kochia plant response rating (kochia (Kochia scoparia) [11]; 125 g ai/ha)	Pigweed plant response rating ([12]; 125 g ai/ha)	Ragweed plant response rating ([13]; 125 g ai/ha)	Ryegrass, Italian plant response rating ([14]; 125 g ai/ha)	Wheat plant response rating ([15]; 125 g ai/ha)	Ducksalad plant response rating (0 to 100 scale) [16]	Barnyardgrass plant response rating (0 to 100 scale) [17]	Rice plant response rating (0 to 100 scale) (rice (Oryza sativa))	also measured
CC1=[N+]([O-])C(C(=O)Nc2cccc(F)c2F)C(c2cccc(C(F)(F)F)n2)C1 (centres unmarked) [Compound 90]	90	90	50	90	0	0	0	10	30	0	20	20	0	0	0	0	0	90	15	0	Kochia plant response rating (0 to 100 scale) (kochia (Kochia scoparia) [3]; 500 g ai/ha): 60; Pigweed plant response rating (0 to 100 scale) ([4]; 500 g ai/ha): 0; Ragweed plant response rating (0 to 100 scale) ([5]; 500 g ai/ha): 0; Ryegrass, Italian plant response rating (0 to 100 scale) ([6]; 125 g ai/ha): 0; Ryegrass, Italian plant response rating (0 to 100 scale) ([6]; 500 g ai/ha): 0; Barnyardgrass plant response rating ([7]; 500 g ai/ha): 80; Blackgrass plant response rating ([8]; 500 g ai/ha): 50; Corn plant response rating (corn (Zea mays); 500 g ai/ha): 0; Foxtail, Giant plant response rating ([9]; 500 g ai/ha): 90; Galium plant response rating ([10]; 500 g ai/ha): 20; Kochia plant response rating (kochia (Kochia scoparia) [11]; 500 g ai/ha): 0; Pigweed plant response rating ([12]; 500 g ai/ha): 0; Ragweed plant response rating ([13]; 500 g ai/ha): 0; Ryegrass, Italian plant response rating ([14]; 500 g ai/ha): 0; Wheat plant response rating ([15]; 500 g ai/ha): 0
CC1=[N+]([O-])C(C(=O)Nc2cccc(F)c2F)C(c2cc(C)cc(C(F)(F)F)c2)C1 (centres unmarked) [Compound 92]	90	90	90	90	0	30	0	70	70	70	70	50	30	20	0	60	70	25	70	0	Kochia plant response rating (0 to 100 scale) (kochia (Kochia scoparia) [3]; 500 g ai/ha): 50; Pigweed plant response rating (0 to 100 scale) ([4]; 500 g ai/ha): 80; Ragweed plant response rating (0 to 100 scale) ([5]; 500 g ai/ha): 70; Ryegrass, Italian plant response rating (0 to 100 scale) ([6]; 125 g ai/ha): 80; Ryegrass, Italian plant response rating (0 to 100 scale) ([6]; 500 g ai/ha): 90; Barnyardgrass plant response rating ([7]; 500 g ai/ha): 90; Blackgrass plant response rating ([8]; 500 g ai/ha): 70; Corn plant response rating (corn (Zea mays); 500 g ai/ha): 80; Foxtail, Giant plant response rating ([9]; 500 g ai/ha): 90; Galium plant response rating ([10]; 500 g ai/ha): 60; Kochia plant response rating (kochia (Kochia scoparia) [11]; 500 g ai/ha): 70; Pigweed plant response rating ([12]; 500 g ai/ha): 60; Ragweed plant response rating ([13]; 500 g ai/ha): 70; Ryegrass, Italian plant response rating ([14]; 500 g ai/ha): 70; Wheat plant response rating ([15]; 500 g ai/ha): 80
CC1=[N+]([O-])C(C(=O)Nc2cccc(F)c2F)C(c2ccc(OC(F)(F)F)c(F)c2)C1 (racemic) [Compound 113]	90	90	90	90	10	30	0	30	40	20	80	50	0	0	50	0	0	0	0	0	Kochia plant response rating (0 to 100 scale) (kochia (Kochia scoparia) [3]; 500 g ai/ha): 90; Pigweed plant response rating (0 to 100 scale) ([4]; 500 g ai/ha): 60; Ragweed plant response rating (0 to 100 scale) ([5]; 500 g ai/ha): 70; Ryegrass, Italian plant response rating (0 to 100 scale) ([6]; 500 g ai/ha): 80; Barnyardgrass plant response rating ([7]; 500 g ai/ha): 80; Blackgrass plant response rating ([8]; 500 g ai/ha): 80; Corn plant response rating (corn (Zea mays); 500 g ai/ha): 80; Foxtail, Giant plant response rating ([9]; 500 g ai/ha): 90; Galium plant response rating ([10]; 500 g ai/ha): 70; Kochia plant response rating (kochia (Kochia scoparia) [11]; 500 g ai/ha): 40; Pigweed plant response rating ([12]; 500 g ai/ha): 20; Ragweed plant response rating ([13]; 500 g ai/ha): 50; Ryegrass, Italian plant response rating ([14]; 500 g ai/ha): 50; Wheat plant response rating ([15]; 500 g ai/ha): 50
CCOc1cc(OC)cc(C2CC(C)=[N+]([O-])C2C(=O)Nc2cccc(F)c2F)c1 (racemic) [Compound 116]	80	90	90	90	0	0	0	50	80	30	60	0	0	0	0	0	20	0	0	0	Kochia plant response rating (0 to 100 scale) (kochia (Kochia scoparia) [3]; 500 g ai/ha): 0; Pigweed plant response rating (0 to 100 scale) ([4]; 500 g ai/ha): 0; Ragweed plant response rating (0 to 100 scale) ([5]; 500 g ai/ha): 0; Ryegrass, Italian plant response rating (0 to 100 scale) ([6]; 500 g ai/ha): 80; Barnyardgrass plant response rating ([7]; 500 g ai/ha): 80; Blackgrass plant response rating ([8]; 500 g ai/ha): 80; Corn plant response rating (corn (Zea mays); 500 g ai/ha): 60; Foxtail, Giant plant response rating ([9]; 500 g ai/ha): 90; Galium plant response rating ([10]; 500 g ai/ha): 20; Kochia plant response rating (kochia (Kochia scoparia) [11]; 500 g ai/ha): 20; Pigweed plant response rating ([12]; 500 g ai/ha): 0; Ragweed plant response rating ([13]; 500 g ai/ha): 0; Ryegrass, Italian plant response rating ([14]; 500 g ai/ha): 80; Wheat plant response rating ([15]; 500 g ai/ha): 70
CC1=[N+]([O-])[C@H](C(=O)Nc2cccc(F)c2F)[C@@H](c2ccc(F)c(OC(F)(F)C(F)F)c2)C1 [Compound 54, (2S,3R)—N-(2,3-Difluorophenyl)-3-[4-fluoro-3-(1,1,2,2-tetrafluoroethyoxy)phenyl]-3,4-dihydro-5-methyl-2H-pyrrole-2-carboxamide 1-oxide]	90		90		50	70	50	70	70	70	70	70	50	60	30	70	50	80	35	0	Barnyardgrass plant response rating [1, 18]: 80; Foxtail, Giant plant response rating [2, 18]: 90; Kochia plant response rating (kochia (Kochia scoparia) [3]; [18]): 0; Pigweed plant response rating [4, 18]: 0; Ragweed plant response rating [5, 18]: 0; Ryegrass, Italian plant response rating [6, 18]: 60; Ryegrass, Italian plant response rating (0 to 100 scale) ([6]; 125 g ai/ha): 80; Barnyardgrass plant response rating ([7]; 31 g ai/ha): 30; Blackgrass plant response rating ([8]; 31 g ai/ha): 60; Corn plant response rating (corn (Zea mays); 31 g ai/ha): 40; Foxtail, Giant plant response rating ([9]; 31 g ai/ha): 30; Galium plant response rating ([10]; 31 g ai/ha): 40; Kochia plant response rating (kochia (Kochia scoparia) [11]; 31 g ai/ha): 0; Pigweed plant response rating ([12]; 31 g ai/ha): 20; Ragweed plant response rating ([13]; 31 g ai/ha): 0; Ryegrass, Italian plant response rating ([14]; 31 g ai/ha): 0; Wheat plant response rating ([15]; 31 g ai/ha): 0

Source: US11498899B2, “Nitrone herbicides” (FMC Corporation, priority 2016, dated 2022)
